Laboratory results reported in patent US20130149311A1, “GFI1B MODULATION AND USES THEREOF” (INSTITUT DE RECHERCHES CLINIQUES DE MONTREAL, priority 2010, published 2013).

System: HSCs
Assay: N-Acetyl-Cystein (NAC) feeding of plpC-treated Gfi1b^fl/fl and MxCre tg Gfi1b^fl/fl mice; hematological compartments and HSC numbers by flow cytometry
Type: in vivo
Details: for Number of HSCs in BM NAC treatment / % Lin^− cells in BM NAC treatment / Number of BM cells × 10^6 NAC treatment / Number of HSCs in Spleen NAC treatment / Number of HSCs per 1 ml blood NAC treatment / Number of Lin^− cells × 10^6 NAC treatment / Number of splenocytes × 10^6 NAC treatment: plpC-treated, fed daily with N-Acetyl-Cystein, mean ± SEM
Experimental: Treatment. MxCre tg Gfi1^fl/fl or Gfi1b^fl/fl mice were injected with polyinosinic-polycytidylic acid (plpC) (Sigma-Aldrich) at a dose of 500 μg per injection every other day for a total of 5 injections. As control, wt or Gfi1b^fl/fl mice not carrying the MxCre tg were injected with plpC. With regard to N-Acetyl-Cystein (Sigma-Aldrich, Mississagua) treatment, mice were fed every day with 500 μl N-Acety-Cystein (50 mg/ml)
Flow cytometry analysis, sorting of HSC and progenitors. HSCs and progenitors were analyzed with a LSR™, or Cyan flow cytometers and HSC were sorted with a MoFlo™ from adult mouse bone marrow as described previously (Kiel et al., 2005, supra; Adolfsson J et al., Cell 2005; 121:295-306). The BrdU experiments and the determination of cell cycle phases by Hoechst staining was done according to described procedures (Wilson et al., 2005, supra). Reactive oxygen species (ROS) were analyzed by staining HSCs with 5-(and-6)-carboxy-2′,7′-dichlorodihydrofluorescein diacetate (carboxy-H2DCFDA) (Invitrogen, Burlington, Canada) for 30 min at 37° C. After staining, cells were analyzed by flow cytometry for level of ROS in HSCs.
To verify whether loss of Gfi1b activates HSCs and that this activation leads to increased level of ROS which in turn could lead to an expansion of HSCs, mice were fed with N-Acetyl-Cystein (NAC), which counteracts the effects of ROS (Ito K, et al. Nat Med. April 2006; 12(4):446-451).

[1] = Gfi1b^fl/fl Mx-Cre tg (Gfi1b deficient) mice
[2] = Gfi1b^fl/fl Mx-Cre tg vs Gfi1b^fl/fl, both NAC treated

## CC(=O)N[C@@H](CS)C(=O)O [NAC, N-Acetyl-Cystein]
Gfi1b^fl/fl (wt) mice, HSCs = Lin^−, Sca-1^+, Kit^+, CD150^+, CD48^−
  Number of HSCs in BM NAC treatment: 1700 ± 700,
Gfi1b^fl/fl (wt) mice
  % Lin^− cells in BM NAC treatment: 1.5 ± 0.1, %
  Number of BM cells × 10^6 NAC treatment: 45 ± 4, × 10^6
  Number of HSCs in Spleen NAC treatment: 197 ± 77,
  Number of HSCs per 1 ml blood NAC treatment: 11 ± 1, per 1 ml blood
  Number of Lin^− cells × 10^6 NAC treatment: 0.8 ± 0.1, × 10^6
  Number of splenocytes × 10^6 NAC treatment: 86 ± 22, × 10^6
[1]
  % Lin^− cells in BM NAC treatment: 2.45 ± 0.5, %
  Number of BM cells × 10^6 NAC treatment: 44 ± 2, × 10^6
  Number of HSCs in BM NAC treatment: 5700 ± 1100,
  Number of HSCs in Spleen NAC treatment: 6000 ± 2000,
  Number of HSCs per 1 ml blood NAC treatment: 307 ± 100, per 1 ml blood
  Number of Lin^− cells × 10^6 NAC treatment: 1.1 ± 0.4, × 10^6
  Number of splenocytes × 10^6 NAC treatment: 104 ± 22, × 10^6
[2]
  % Lin^− cells in BM NAC treatment, fold change: 1.6
  Number of BM cells NAC treatment, fold change: 1
  Number of HSCs in BM NAC treatment, fold change: 3
  Number of HSCs in Spleen NAC treatment, fold change: 30
  Number of HSCs per 1 ml blood NAC treatment, fold change: 28
  Number of Lin^− cells NAC treatment, fold change: 1.4
  Number of splenocytes NAC treatment, fold change: 1.2
Bone marrow, spleen and peripheral blood, NAC-treated vs untreated Gfi1b-deficient mice
  Effect on expansion of Gfi1b^ko/ko HSCs (frequencies and absolute numbers): significantly limited the expansion
